Assay results as given in US4109008A, “Hydrazine derivatives useful as anti-hypertensives” (Hexachimie, priority 1976, dated 1978).

Test system: male rats exhibiting a spontaneous genetically transmissible hypertension
Experiment: Systolic arterial pressure and rate of heartbeat in spontaneously hypertensive rats after intraperitoneal administration
Assay type: in vivo
Conditions: Rattus norvegicus, ip, 0.5 h, 40 mg/kg given intraperitoneally, T + 30 mins, read-out: percentage variation and mean deviation of the systolic arterial pressure, T + 30 mins
Protocol: The arterial pressure is measured by a "Narco Bio System" sphygmomanometer. A sleeve is placed over the base of the tail and a detector records the pulse downstream from the sleeve. The sleeve is then inflated until the pulse is stopped, thus indicating the systolic pressure. The rate of heartbeat is also recorded. The products to be studied are converted to a suspension by means of "Tween 80" and administered intraperitoneally in a volume of 1 cm^3 per 100 grams of body weight. The measurements are repeated at regular intervals.

Compound | change in vivo at 40 mg/kg [%]
Cn1c(=O)n(C)c2cc(C=NNC3=NCCN3)ccc21 [Example 12, N-(1,3-Dimethyl-2-Oxo-5-Benzimidazolylidene)-N'-Imidazolino-Hydrazine] | -39 ± 7.4
C#CCOc1ccccc1C=NNC(=N)N [Example 1, N-[o-(Prop-2-Y-noxy)-Benzylidene]-N'-Amidino-Hydrazine] | -52 ± 3.4
